In ChEMBL document CHEMBL3045183, “Bioefficacy of violacein against Asian armyworm Spodoptera litura Fab. (Lepidoptera: Noctuidae)” (2012):
Values after ≈ are worked out from the molar mass of the structure shown. Active and inactive are the calls of the source. The calls are words filed in the database; no cut-off is given here.

How the values were obtained:
Chironomus riparius = test: Larvicidal activity against Chironomus riparius; format: functional
Spodoptera litura [1] = test: Insecticidal activity Spodoptera litura third-instar larva fed on 250 ppm compound pre-treated castor leaf disks for 24 hr followed by larval maintenance on fresh castor leaves assessed as total mortality (reference value: 8%); format: functional
Spodoptera litura [2] = test: Insecticidal activity Spodoptera litura third-instar larva fed on 125 ppm compound pre-treated castor leaf disks for 24 hr followed by larval maintenance on fresh castor leaves assessed as total mortality (reference value: 8%); format: functional
Spodoptera litura [3] = test: Pupicidal activity Spodoptera litura third-instar larva fed on 250 ppm compound pre-treated castor leaf disks for 24 hr followed by larval maintenance on fresh castor leaves until pupae formation assessed as pupal mortality (reference value: 8.0 +/- 4.47%); format: functional
Spodoptera litura [4] = test: Pupicidal activity Spodoptera litura third-instar larva fed on 125 ppm compound pre-treated castor leaf disks for 24 hr followed by larval maintenance on fresh castor leaves until pupae formation assessed as pupal mortality (reference value: 8.0 +/- 4.47%); format: functional
Spodoptera litura [5] = test: Larvicidal activity Spodoptera litura third-instar larva fed on compound pre-treated castor leaf disks for 24 hr followed by larval maintenance on fresh castor leaves assessed as insect mortality measured after 96 hr; format: functional; settings: for LC50: Spodoptera litura, foliar
Spodoptera litura [6] = test: Larvicidal activity Spodoptera litura third-instar larva fed on 1000 ppm compound pre-treated castor leaf disks for 24 hr followed by larval maintenance on fresh castor leaves assessed as insect mortality measured after 96 hr; format: functional
Spodoptera litura [7] = test: Larvicidal activity Spodoptera litura third-instar larva fed on 500 ppm compound pre-treated castor leaf disks for 24 hr followed by larval maintenance on fresh castor leaves assessed as insect mortality measured after 96 hr; format: functional
Spodoptera litura [8] = test: Larvicidal activity Spodoptera litura third-instar larva fed on 250 ppm compound pre-treated castor leaf disks for 24 hr followed by larval maintenance on fresh castor leaves assessed as insect mortality measured after 96 hr; format: functional
Spodoptera litura [9] = test: Larvicidal activity Spodoptera litura third-instar larva fed on 125 ppm compound pre-treated castor leaf disks for 24 hr followed by larval maintenance on fresh castor leaves assessed as insect mortality measured after 96 hr; format: functional
Spodoptera litura [10] = test: Antifeedant activity against Spodoptera litura third-instar larva fed on compound pre-treated castor leaf disks measured after 24 hr by leaf-disk no-choice method (reference value: 2.09 +/- 0.94%); format: functional; settings: for LC50: Spodoptera litura, foliar
Spodoptera litura [11] = test: Antifeedant activity against Spodoptera litura third-instar larva fed on 1000 ppm compound pre-treated castor leaf disks measured after 24 hr by leaf-disk no-choice method (reference value: 2.09 +/- 0.94%); format: functional
Spodoptera litura [12] = test: Antifeedant activity against Spodoptera litura third-instar larva fed on 500 ppm compound pre-treated castor leaf disks measured after 24 hr by leaf-disk no-choice method (reference value: 2.09 +/- 0.94%); format: functional
Spodoptera litura [13] = test: Antifeedant activity against Spodoptera litura third-instar larva fed on 250 ppm compound pre-treated castor leaf disks measured after 24 hr by leaf-disk no-choice method (reference value: 2.09 +/- 0.94%); format: functional
Spodoptera litura [14] = test: Antifeedant activity against Spodoptera litura third-instar larva fed on 125 ppm compound pre-treated castor leaf disks measured after 24 hr by leaf-disk no-choice method (reference value: 2.09 +/- 0.94%); format: functional
Helicoverpa armigera = test: Antifeedant activity against Helicoverpa armigera at 1000 ppm; format: functional
Spodoptera litura [15] = test: Insecticidal activity Spodoptera litura third-instar larva fed on 1000 ppm compound pre-treated castor leaf disks for 24 hr followed by larval maintenance on fresh castor leaves assessed as induction of abnormalities; format: functional, organism-based
Spodoptera litura [16] = test: Insecticidal activity Spodoptera litura third-instar larva fed on 1000 ppm compound pre-treated castor leaf disks for 24 hr followed by larval maintenance on fresh castor leaves assessed as total mortality (reference value: 8%); format: functional
Spodoptera litura [17] = test: Insecticidal activity Spodoptera litura third-instar larva fed on 500 ppm compound pre-treated castor leaf disks for 24 hr followed by larval maintenance on fresh castor leaves assessed as total mortality (reference value: 8%); format: functional
Spodoptera litura [18] = test: Pupicidal activity Spodoptera litura third-instar larva fed on 1000 ppm compound pre-treated castor leaf disks for 24 hr followed by larval maintenance on fresh castor leaves until pupae formation assessed as pupal mortality (reference value: 8.0 +/- 4.47%); format: functional
Spodoptera litura [19] = test: Pupicidal activity Spodoptera litura third-instar larva fed on 500 ppm compound pre-treated castor leaf disks for 24 hr followed by larval maintenance on fresh castor leaves until pupae formation assessed as pupal mortality (reference value: 8.0 +/- 4.47%); format: functional

SMILES | mortality (Spodoptera litura [1]) [%] | mortality (Spodoptera litura [2]) [%] | mortality (Spodoptera litura [3]) [%] | mortality (Spodoptera litura [4]) [%] | LC90 (Spodoptera litura [5]) [ppm] | LC50 (Spodoptera litura [5]) [µg/mL] | mortality (Spodoptera litura [6]) [%] | mortality (Spodoptera litura [7]) [%] | mortality (Spodoptera litura [8]) [%] | mortality (Spodoptera litura [9]) [%] | LC90 (Spodoptera litura [10]) [ppm] | LC50 (Spodoptera litura [10]) [µg/mL] | AFI (Spodoptera litura [11]) [%] | AFI (Spodoptera litura [12]) [%] | AFI (Spodoptera litura [13]) [%] | AFI (Spodoptera litura [14]) [%] | other results
[C-]#[N+][C@@H]1[C@H]2c3c[nH]c4cccc(c34)C(C)(C)[C@H]2CC[C@@]1(C)C=C [12-EPI-HAPALINDOLE J ISONITRILE] |  |  |  |  |  |  |  |  |  |  |  |  |  |  |  |  | Activity (Chironomus riparius): 100%
C/C=C(\C)C(=O)O[C@H]1C[C@@H](OC(C)=O)[C@@]2(C(=O)OC)CO[C@H]3[C@@H](O)[C@@](C)([C@]45O[C@@]4(C)[C@@H]4C[C@H]5O[C@@H]5OC=C[C@@]54O)[C@H]4[C@]1(CO[C@]4(O)C(=O)OC)[C@@H]32 [AZADIRACHTIN A] | 98.28 | 85.33 | 28 | 28 | 412.78 | 119 (≈ 165 µM) | 100 | 93.55 | 70.21 | 57.33 | 3278.46 | 134 (≈ 186 µM) | 79.41 | 70.49 | 61.31 | 49.67 | 
O=C1NC(c2c[nH]c3ccc(O)cc23)=C/C1=C1\C(=O)Nc2ccccc21 [VIOLACEIN] | 77.99 | 51.11 | 24 | 22 | 2016.71 | 255 (≈ 743 µM) | 77.1 | 68.88 | 53.99 | 29.11 | 3649.91 | 392 (≈ 1140 µM) | 72.46 | 55.16 | 39.69 | 28.66 | AFI (Helicoverpa armigera): >80%; Activity (Spodoptera litura [15]): Active; mortality (Spodoptera litura [16]): 99.1%; mortality (Spodoptera litura [17]): 89.58%; mortality (Spodoptera litura [18]): 22%; mortality (Spodoptera litura [19]): 20.7%
